# Literature values, collected in article PMC8278929 (Chemical Science, 2021).
# How the values were obtained:
# [1] = analogue of 11
# [2] = free, uncoordinated alcohol, no reference given
# [3] = in PBS, Os/pyr/for 1:200:400
compound,measurement,setting,value
[Os(η^6-C6H5C6H5)(4-Me-pico)Cl]^+,ΔS^‡ (entropy of hydrolysis),[1],−55.6 ± 1.6 J K^−1 mol^−1
OCCCc1ccccc1 [3-phenyl-1-propanol],estimated pKa,[2],ca. 16
[Os(η^6-p-cymene)(TsDPEN)],TOFmax,[3],1.5 h⁻¹
